Experimental data as given in US11969428B2, “Methods and pharmaceutical compositions for treating lymphoid malignancy” (priority 2011, dated 2024).

What was measured:
Plasma levels of CAL-130 = assay type: in vivo, mouse; conditions: 10 mg kg−1 orally, at the end of 8 hours
Method: For CAL-130 level determinations, animals received a single oral dose (10 mg kg^−1 or 20 mg kg^−1) of inhibitor. Plasma was collected at 0, 2, 4, 8, and 12 hours and subjected to high-performance liquid chromatography-MS/MS (sensitivity 1 ng/mL). The concentration of CAL-130 in plasma was determined using a standard curve (analyte peak area versus concentration) generated with calibration standard pools. Values represent the mean (±SD) for four animals per group.

Akt/PKB phosphorylation = experiment: TCR-induced Akt/PKB phosphorylation in thymocytes (Western blot); assay type: cell-based, mouse; conditions: thymocytes from 6 week old wild type animals
Method: Cell lysates (from cell lines or thymocytes) were prepared on ice in M-PER Mammalian Protein Extraction reagent (Pierce) containing a cocktail of protease and phosphatase inhibitors (Swat et al., 2006). Equal amounts of total protein from lysates were subjected to SDS-PAGE, transferred to PVDF membrane (Immobilon-P, Millipore), and membranes probed by overnight incubation with appropriate primary antibodies. Bound antibodies were visualized with HRP-conjugated secondary antibodies and ECL chemistry (SuperPico West, Pierce).
To assess the requirement for p110δ in TCR-induced phosphorylation of Akt/PBK, single-cell suspensions of thymocytes (1×10^8/mL) from PI3Kγ-deficient animals were incubated with the p110δ-specific inhibitor IC87114 (10 μM) or with vehicle control (DMSO) for 30 minutes before TCR cross-linking, as described for the Ca^2+ flux assay. Aliquots (100 μL) were collected at 0, 10, 30, and 60 minutes after TCR cross-linking, briefly centrifuged to pellet, and subsequently lysed with ice-cold M-Per (Pierce, Rockford, IL) (according to the manufacturer's recommendations) that contained a cocktail of phosphatase and protease inhibitors (Puri et al., 2005). Lysates were clarified by centrifugation (12,000 g for 15 minutes at 4° C.), and total and phosphorylated Akt/PBK were determined by Western blot analysis.

p110α = p110α (Homo sapiens, UniProt P42336); experiment: ex-vivo PI3 kinase assay using recombinant PI3K; assay type: biochemical; conditions: ATP at Km
Method: (§1) CAL-130 is a derivative of IC87114 (Gilead Sciences, Foster City, CA), the synthesis of which has been previously described (Sadhu et al., 2003 and Sadhu et al., U.S. Pat. Nos. 6,518,277 and 6,667,300, which are incorporated by reference as if recited in full herein). […] values for CAL-130 inhibition of PI3K isoforms were determined in ex-vivo PI3 kinase assays using recombinant PI3K. A 10-point kinase inhibitory profile was determined with ATP at a concentration consistent with the Km for each enzyme (Puri et al., 2004).

p110β = p110β (Homo sapiens, UniProt P42338); experiment: ex-vivo PI3 kinase assay using recombinant PI3K; assay type: biochemical; conditions: ATP at Km
Method: as §1

p110γ = p110γ (Homo sapiens, UniProt P48736); experiment: ex-vivo PI3 kinase assay using recombinant PI3K; assay type: biochemical; conditions: ATP at Km
Method: as §1

p110δ = p110δ (Homo sapiens, UniProt O00329); experiment: ex-vivo PI3 kinase assay using recombinant PI3K; assay type: biochemical; conditions: ATP at Km
Method: as §1

[1] = Plasma glucose and insulin levels; assay type: in vivo, mouse; conditions: single oral dose 10 mg kg−1
Method: Plasma glucose and insulin levels were determined following a single oral dose of CAL-130 (10 mg kg^−1). Blood was collected into K2EDTA tubes by cardiac puncture at baseline and 0, 2, 4, and 8 hours post-dose, and plasma samples frozen at −80° C. until analysis. The insulin and glucose levels were determined by using an Ultra Sensitive Mouse Insulin ELISA Kit (Crystall Chem Inc.) or WaveSense Presto Blood Glucose Monitoring System (Agamatrix Inc., Boston, MA), respectively.

PI3Kα = PI3Kα isoform selective cell-based assay (PDGF-stimulated SW3T3 cells, P-Akt); conditions: compared to pan-PI3K/mTOR inhibitor BEZ235
Method: For the analysis of p110α-mediated signaling, SW3T3 cells were placed in serum free media (3 hours) and incubated with either CAL-130 or the Pan-PI3K/mTor inhibitor BEZ235 (Selleck Chemicals) for 1 hour prior to stimulation with PDGF (10 ng/ml; Cell Signaling) for 10 minutes at 37° C. After washing once in cold phosphate-buffered saline (PBS), the cell pellet was resuspended in lysis buffer (50 mM HEPES [N-2-hydroxyethylpiperazine-N-2-ethanesulfonic acid], pH 7.4, 150 mM NaCl, 10% glycerol, 1% Triton X-100, 1.5 mM MgCl2, 1 mM EGTA [ethylene glycol tetraacetic acid], 100 mM NaF, 1 mM phenylmethylsulfonyl fluoride, 1 mM NaVO4, 1 μg/ml leupeptin, and 1 μg/ml aprotinin) for 15 minutes on ice. Whole-cell lysates were obtained by centrifugation, and the soluble protein analyzed by Western blotting for Akt and P-Akt levels. Quantification was done using the Li-COR Odyssey imaging system.

thymocytes = experiment: Effect on thymi of 6 week old mice treated 7 days; assay type: in vivo, mouse; conditions: 10 mg kg−1 every 8 hours for 7 days
Method: Cell counts were measured on a Hemavet 850FS system (CDC Technologies, Oxford, CT), and standard procedures were followed for staining cells with the following antibody conjugates for flow cytometry (BD Biosciences, San Jose, CA) (Cella et al., 2004): phycoerythrin (PE) anti-CD4 (clone H129.19), fluorescein (FITC), PE, cytochrome c (CyC), or biotin anti-CD8a, FITC CD3c, CyC anti-B220, and Thy 1.2. Biotinylated antibodies were detected with either streptavidin-PE or streptavidin-CyC. Subsets of DN thymocytes were analyzed based on expression of CD25 and CD44 after gating out cells that stained with a cocktail of biotinylated antibodies to CD4, CD8, B220, Mac-1, and Gr-1 followed by streptavidin Cy-Chrome.
To assess the in vivo efficacy of the inhibitor, its effects on thymi of 6 week old mice were determined, specifically for its ability to recapitulate the phenotype observed when both p110γ and p110δ are deficient. Animals received 10 mg kg^−1 of the inhibitor orally, which was sufficient to maintain plasma concentrations of 0.33±0.18 μM at the end of 8 hours (FIG. 16D). […] In particular, there was a 18-fold reduction in total thymocyte number in comparison to controls, which was primarily due to the loss of DP population (FIG. 16H). These observations are consistent with the ability of CAL-130 to preferentially block the function of both PI3Kγ and PI3Kδ.

Chain of p110γ (P48736 whole entry, species assumed): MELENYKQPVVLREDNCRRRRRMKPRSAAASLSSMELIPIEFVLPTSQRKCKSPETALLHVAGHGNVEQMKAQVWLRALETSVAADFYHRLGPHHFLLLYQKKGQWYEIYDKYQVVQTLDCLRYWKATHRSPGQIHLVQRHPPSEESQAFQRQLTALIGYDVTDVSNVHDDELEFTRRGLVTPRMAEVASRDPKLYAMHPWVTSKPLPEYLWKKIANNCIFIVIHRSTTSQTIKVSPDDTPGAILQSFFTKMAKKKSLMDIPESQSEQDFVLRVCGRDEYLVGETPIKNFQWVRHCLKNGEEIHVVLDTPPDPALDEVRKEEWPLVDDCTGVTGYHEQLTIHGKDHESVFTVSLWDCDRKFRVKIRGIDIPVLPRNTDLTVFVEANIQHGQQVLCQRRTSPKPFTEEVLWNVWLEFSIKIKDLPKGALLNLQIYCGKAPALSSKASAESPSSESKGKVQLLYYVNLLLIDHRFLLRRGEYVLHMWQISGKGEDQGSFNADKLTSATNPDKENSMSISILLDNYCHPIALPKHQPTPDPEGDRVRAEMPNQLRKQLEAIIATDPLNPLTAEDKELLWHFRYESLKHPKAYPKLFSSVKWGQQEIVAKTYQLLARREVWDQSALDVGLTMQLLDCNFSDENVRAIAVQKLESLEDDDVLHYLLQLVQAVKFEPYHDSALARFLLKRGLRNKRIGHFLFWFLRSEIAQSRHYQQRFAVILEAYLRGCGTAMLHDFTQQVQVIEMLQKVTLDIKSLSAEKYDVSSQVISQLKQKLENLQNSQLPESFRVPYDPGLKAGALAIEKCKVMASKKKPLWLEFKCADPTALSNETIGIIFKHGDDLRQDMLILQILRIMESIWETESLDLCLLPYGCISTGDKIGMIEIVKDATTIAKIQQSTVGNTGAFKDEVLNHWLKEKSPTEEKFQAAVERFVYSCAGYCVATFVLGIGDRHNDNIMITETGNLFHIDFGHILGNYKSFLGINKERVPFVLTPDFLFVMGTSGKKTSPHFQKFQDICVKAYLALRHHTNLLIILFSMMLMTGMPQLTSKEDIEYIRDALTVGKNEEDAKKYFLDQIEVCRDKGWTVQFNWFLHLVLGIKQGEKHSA
Chain of p110α (P42336 whole entry, species assumed, canonical isoform): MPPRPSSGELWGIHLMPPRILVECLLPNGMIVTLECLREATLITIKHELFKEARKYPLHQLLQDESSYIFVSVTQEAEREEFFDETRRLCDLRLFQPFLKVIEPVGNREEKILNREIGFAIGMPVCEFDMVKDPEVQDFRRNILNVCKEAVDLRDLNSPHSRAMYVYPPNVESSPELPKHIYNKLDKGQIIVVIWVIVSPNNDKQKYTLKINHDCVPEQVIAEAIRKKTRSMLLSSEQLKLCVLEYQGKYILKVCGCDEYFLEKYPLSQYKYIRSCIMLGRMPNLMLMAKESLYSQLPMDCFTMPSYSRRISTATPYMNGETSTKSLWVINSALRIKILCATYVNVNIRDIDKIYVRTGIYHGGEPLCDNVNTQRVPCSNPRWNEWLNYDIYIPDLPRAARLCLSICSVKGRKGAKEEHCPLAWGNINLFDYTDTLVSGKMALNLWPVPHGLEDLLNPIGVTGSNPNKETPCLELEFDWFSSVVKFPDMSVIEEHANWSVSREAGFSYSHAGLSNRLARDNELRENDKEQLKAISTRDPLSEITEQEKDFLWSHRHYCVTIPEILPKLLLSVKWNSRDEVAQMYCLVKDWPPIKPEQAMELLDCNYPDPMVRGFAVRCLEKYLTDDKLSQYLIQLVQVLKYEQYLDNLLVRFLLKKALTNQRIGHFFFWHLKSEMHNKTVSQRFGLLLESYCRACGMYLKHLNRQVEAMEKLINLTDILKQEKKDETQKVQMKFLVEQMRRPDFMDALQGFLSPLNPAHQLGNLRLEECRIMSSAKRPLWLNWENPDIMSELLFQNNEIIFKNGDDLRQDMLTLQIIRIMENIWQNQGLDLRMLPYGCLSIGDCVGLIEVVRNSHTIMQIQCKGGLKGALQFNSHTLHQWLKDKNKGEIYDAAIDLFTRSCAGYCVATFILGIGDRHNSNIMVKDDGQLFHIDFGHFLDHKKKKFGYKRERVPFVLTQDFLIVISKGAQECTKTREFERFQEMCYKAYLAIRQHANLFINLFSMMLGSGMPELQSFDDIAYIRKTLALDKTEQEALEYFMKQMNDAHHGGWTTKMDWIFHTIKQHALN
Chain of p110α (P27986 whole entry partner, species assumed, canonical isoform): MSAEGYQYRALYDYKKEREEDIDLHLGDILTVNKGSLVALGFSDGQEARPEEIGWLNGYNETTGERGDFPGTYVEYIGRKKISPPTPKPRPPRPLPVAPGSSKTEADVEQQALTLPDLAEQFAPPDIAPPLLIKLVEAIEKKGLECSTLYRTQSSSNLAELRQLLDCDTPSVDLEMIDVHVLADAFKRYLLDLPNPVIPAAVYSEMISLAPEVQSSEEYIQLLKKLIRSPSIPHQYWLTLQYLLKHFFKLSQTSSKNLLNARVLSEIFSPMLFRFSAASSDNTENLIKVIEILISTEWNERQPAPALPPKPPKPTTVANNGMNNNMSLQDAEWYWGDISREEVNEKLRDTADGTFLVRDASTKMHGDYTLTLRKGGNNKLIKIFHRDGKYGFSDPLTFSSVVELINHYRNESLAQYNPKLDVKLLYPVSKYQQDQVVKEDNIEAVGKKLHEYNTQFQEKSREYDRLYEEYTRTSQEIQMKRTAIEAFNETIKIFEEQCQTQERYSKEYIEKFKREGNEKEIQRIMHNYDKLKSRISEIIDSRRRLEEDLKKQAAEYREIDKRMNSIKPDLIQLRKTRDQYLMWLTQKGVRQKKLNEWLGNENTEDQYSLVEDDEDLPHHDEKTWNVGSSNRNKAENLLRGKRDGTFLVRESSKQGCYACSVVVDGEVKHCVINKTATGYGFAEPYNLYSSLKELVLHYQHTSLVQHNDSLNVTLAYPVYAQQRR
Chain of p110β (P42338 whole entry, species assumed): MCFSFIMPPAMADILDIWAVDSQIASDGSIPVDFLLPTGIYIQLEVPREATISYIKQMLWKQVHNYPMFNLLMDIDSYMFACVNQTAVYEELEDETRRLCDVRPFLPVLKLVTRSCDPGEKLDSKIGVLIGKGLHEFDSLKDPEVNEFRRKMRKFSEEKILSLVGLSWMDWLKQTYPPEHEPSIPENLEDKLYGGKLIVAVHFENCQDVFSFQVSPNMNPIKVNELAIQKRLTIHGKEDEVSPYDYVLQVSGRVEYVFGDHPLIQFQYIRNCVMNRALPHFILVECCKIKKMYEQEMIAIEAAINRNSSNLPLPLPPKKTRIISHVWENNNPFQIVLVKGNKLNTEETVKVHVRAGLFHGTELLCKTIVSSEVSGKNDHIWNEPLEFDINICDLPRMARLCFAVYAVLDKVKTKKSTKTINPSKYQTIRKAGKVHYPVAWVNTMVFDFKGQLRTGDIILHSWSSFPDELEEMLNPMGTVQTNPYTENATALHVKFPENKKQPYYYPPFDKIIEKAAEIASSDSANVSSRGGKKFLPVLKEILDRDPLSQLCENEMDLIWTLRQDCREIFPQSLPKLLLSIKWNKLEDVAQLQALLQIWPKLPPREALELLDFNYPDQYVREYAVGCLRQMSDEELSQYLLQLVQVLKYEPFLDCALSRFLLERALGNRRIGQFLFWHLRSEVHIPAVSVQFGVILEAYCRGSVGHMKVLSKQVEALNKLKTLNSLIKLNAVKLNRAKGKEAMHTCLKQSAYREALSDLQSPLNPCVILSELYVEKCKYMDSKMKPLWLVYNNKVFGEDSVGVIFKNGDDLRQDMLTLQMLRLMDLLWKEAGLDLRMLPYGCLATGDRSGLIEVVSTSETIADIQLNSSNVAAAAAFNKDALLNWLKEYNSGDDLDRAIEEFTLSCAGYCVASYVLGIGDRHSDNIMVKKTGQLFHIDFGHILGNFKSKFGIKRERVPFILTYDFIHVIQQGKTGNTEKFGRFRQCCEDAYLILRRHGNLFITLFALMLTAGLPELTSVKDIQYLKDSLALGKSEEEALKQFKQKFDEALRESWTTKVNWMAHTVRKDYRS
Chain of p110β (P27986 whole entry partner, species assumed): as the sequence (P27986 whole entry partner, species assumed, canonical isoform) above
Chain of p110δ (O00329 whole entry, species assumed): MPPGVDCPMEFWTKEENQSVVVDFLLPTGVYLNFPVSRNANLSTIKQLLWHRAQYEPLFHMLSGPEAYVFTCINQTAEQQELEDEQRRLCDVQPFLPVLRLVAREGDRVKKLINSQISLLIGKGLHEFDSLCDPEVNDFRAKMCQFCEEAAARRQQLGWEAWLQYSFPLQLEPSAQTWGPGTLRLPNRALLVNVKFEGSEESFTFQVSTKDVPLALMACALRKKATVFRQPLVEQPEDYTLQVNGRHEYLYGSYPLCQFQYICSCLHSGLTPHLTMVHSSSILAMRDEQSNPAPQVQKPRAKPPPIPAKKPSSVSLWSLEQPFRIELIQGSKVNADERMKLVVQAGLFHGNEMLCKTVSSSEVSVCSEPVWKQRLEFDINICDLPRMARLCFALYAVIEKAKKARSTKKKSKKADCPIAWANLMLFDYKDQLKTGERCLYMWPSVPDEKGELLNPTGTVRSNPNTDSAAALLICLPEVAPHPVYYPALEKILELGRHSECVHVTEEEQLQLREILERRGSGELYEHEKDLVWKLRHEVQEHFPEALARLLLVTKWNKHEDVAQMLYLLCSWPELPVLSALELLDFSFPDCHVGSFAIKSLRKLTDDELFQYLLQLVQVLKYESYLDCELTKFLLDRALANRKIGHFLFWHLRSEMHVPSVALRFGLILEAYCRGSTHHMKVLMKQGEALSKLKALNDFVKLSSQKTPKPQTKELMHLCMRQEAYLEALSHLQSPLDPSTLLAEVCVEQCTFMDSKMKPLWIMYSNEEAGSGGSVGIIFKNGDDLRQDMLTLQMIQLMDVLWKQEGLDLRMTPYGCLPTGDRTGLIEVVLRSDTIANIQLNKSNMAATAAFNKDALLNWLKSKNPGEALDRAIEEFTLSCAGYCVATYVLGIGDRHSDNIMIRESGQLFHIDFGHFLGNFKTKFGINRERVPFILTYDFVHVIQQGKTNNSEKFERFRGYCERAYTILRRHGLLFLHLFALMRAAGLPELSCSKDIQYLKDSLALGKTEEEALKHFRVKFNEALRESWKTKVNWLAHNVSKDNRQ
Chain of p110δ (P27986 whole entry partner, species assumed): as the sequence (P27986 whole entry partner, species assumed, canonical isoform) above

In the case of `Cc1ccccc1-n1c(C(C)Nc2nc(N)nc3nc[nH]c23)nc2cccc(C)c2c1=O` (stereo not shown) [CAL-130], the plasma concentration (Plasma levels of CAL-130) is reported as 0.33 ± 0.18 µM, the “TCR induced Akt phosphorylation (Ser473)” value (Akt/PKB phosphorylation) is reported as “prevented” and the IC50 (p110α) is reported as 115 nM. For the same compound, the IC50 (p110β) was 56 nM, the IC50 (p110γ) was 6.1 nM and the IC50 (p110δ) was 1.3 nM. For the same compound, the plasma glucose levels [1] was “did not affect”, the plasma insulin levels [1] was “did not affect” and the “PDGF-induced activation of PI3Kα (Akt phosphorylation)” value (PI3Kα) was “limited ability to impair”. The “reduction in total thymocyte number in comparison to controls” value (thymocytes) was 18 fold.
